Reference: US20260034116A1, “CANCER COMBINATION THERAPY INCLUDING A BCL-2 INHIBITOR” (RYVU THERAPEUTICS S.A., priority 2022, published 2026)
Where two headings read alike, the source gives them in different places.

Columns and labels:
[1] = test system: MOLM-13 cells (FLT3 ITD); experiment: in vitro standard cytotoxicity experiment (MTS), 72 h, MEN with S65487 or AZD4320; assay type: cell-based, human; conditions: single agent
Method: (§1) In an in vitro standard cytotoxicity experiment, two AML cell lines (MOLM-13 [FLT3 ITD] and MV4-11 [FLT3 ITD]) were treated for 72 hours with MEN and S65487 either as a single agent or in combination.
(§2) In an in vitro standard cytotoxicity experiment, two AML cell lines (MOLM-13 [FLT3 ITD] and MV4-11 [FLT3 ITD]) were treated for 72 hours with MEN and AZD4320 either as a single agent or in combination.
(§3) Human acute myeloid leukemia cell lines MV4-11 and MOLM-13 were obtained from DSMZ, Braunschweig, Germany (ACC102 and ACC554). MV4-11 cells were cultured in RPMI 1640 medium (Gibco, Life Technologies, Carlsbad, CA, USA) supplemented with 10% fetal bovine serum (FBS) (Sigma, Saint Louis, CA, USA). MOLM-13 cells were grown in RPMI with 20% FBS. All cells were incubated at 37° C., 5% CO2, 80% relative humidity.
(§4) MEN1703 (alternatively referred to as “Men”, “MEN”, “MEN1703” or “SEL24/MEN1703”), in the HCl-salt form (CAS number 2769008-22-) with the IUPAC name 5,6-dibromo-4-nitro-2-(piperidin-4-yl)-1-(propan-2-yl)-1H-1,3-benzodiazole-4-amine hydrochloride (batch no. A/2201/24/1)), synthesized at Aptuit (VR); AZD4320 from MedChem Express, Monmouth Junction, NJ, USA, batch no. 64354) and S65487 from MedChem Express, Monmouth Junction, NJ, USA were dissolved in DMSO, divided into aliquots and stored at −80° C. until use. Stock solutions were added at appropriate concentration in culture medium before the addition to cells.
(§5) For cytotoxicity studies cells were seeded at appropriate density (50,000 cells/well) prior to addition of MEN and Quiz at day 0. The concentration range was previously identified in single agent cytotoxicity assays for the same time points in order to include in the combination experiment the IC10, IC25, IC50 and IC75 values for each drug and for each AML cell lines (see Tables 4 to 7). After 72 hours, CellTiter 96 Aqueous One Solution Reagent (MTS) (Promega, Madison. WI, USA) was added to assess the cell viability. […] was measured 4 h later using Tecan Infinite M200 (Tecan Trading AG, Switzerland), recording absorbance at 490 nm. Quantitative measurement of synergism/antagonism was evaluated with Combination Index (CI) on the Fraction affected (Fa) using CompuSyn (ComboSyn, Inc. Paramus, NJ, USA) (Chou TC, 2006).

[2] = test system: MV4-11 cells (FLT3 ITD); experiment: as above; assay type: cell-based, human; conditions: single agent
Method: as §1, §2, §3, §4, §5

[3] = test system: KG1 cells (FLT3 wt); experiment: in vitro standard cytotoxicity assay (MTS), Ven and/or 5-Aza 48 h followed by Men 24 h; assay type: cell-based, human; conditions: same time points as combination; for IC50: read-out: IC50 dose level
Method: (§6) In an in vitro standard cytotoxicity assay, three AML cell lines (KG1 [FLT3 wt], MV4-11 [FLT3 ITD] and MOLM-13 [FLT3 ITD]) were treated with Ven and/or 5-Aza for 48 hours, followed by Men treatment for additional 24 hours. […] In MOLM13 cells (FLT3 ITD), the CI of the triple combination was similar to the CIs of the Men-Ven and the VenAza combinations (see Table 3).
as §3, with “lines KG-1,” for “lines”, “(ACC14, ACC102” for “(ACC102”, “ACC554). KG-1 and” for “ACC554).”, “humidity. The human acute myeloid leukemia cell line MOLM-16 was obtained from DSMZ, Braunschweig, Germany (cell line number ACC-555. MOLM-16 cells were grown in RPMI with 20% FBS (Sigma, Saint Louis, CA, USA). Cells were incubated at 37° C., 5% CO2, 80% relative humidity.” for “humidity.”
(§7) Men (alternatively referred to as “MEN1703”, in the HCI-salt form (CAS number 2769008-22-) with the IUPAC name 5,6-dibromo-4-nitro-2-(piperidin-4-yl)-1-(propan-2-yl)-1H-1,3-benzodiazole-4-amine hydrochloride (batch no. A/2201/24/1)), synthesized at Aptuit (VR) and Venetoclax (alternatively referred to as “Ven” or “ABT-199”, ChemCruz no. SC-472284A) were dissolved in DMSO, divided into aliquots and stored at-80° C. until use. Stock solutions were added at appropriate concentration in culture medium before the addition to cells. […] A stock solution was added at appropriate concentration in culture medium before the addition to cells.
(§8) For cytotoxicity studies cells were seeded at appropriate density (50.000 cells/well) prior to addition of Ven and 5-Aza at day 0. 5-Aza was added every 24 hours due to degradation (Hollen-bach PW, 2010 and Chang E, 2016). Then, after 48 hours, Men was added to cultured cells for the final 24 h (overall, a period of 72 h was tested). The concentration range was previously identified in single agent cytotoxic assay for the same time points in order to include in the combination experiment the IC10, IC25, IC50 and IC75 values for each drug and for each AML cell lines (see Tables 1 to 3). All possible combinations were assessed: Men+Ven, Ven+5-Aza, Men+5-Aza and men+5-Aza+Ven (mav). After 72 hours, CellTiter 96 Aqueous One Solution Reagent (MTS) (Promega, Madison. WI, USA) was added to assess the cell viability. […] was measured 4h later using Tecan Infinite M200 (Tecan Trading AG, Switzerland), recording absorbance at 490 nm. Quantitative measurement of synergism/antagonism was evaluated with Combination Index (CI) on the Fraction affected (Fa) using CompuSyn (ComboSyn, Inc. Paramus, NJ, USA) (Chou TC, 2006).

[4] = test system: MOLM-13 cells (FLT3 ITD); experiment: as above; assay type: cell-based, human; conditions: MOLM13 cells, single agent cytotoxic assay, same time points as combination; for IC50: read-out: IC50 dose level
Method: as §6
as §3, with “lines KG-1,” for “lines”, “(ACC14, ACC102” for “(ACC102”, “ACC554). KG-1 and” for “ACC554).”, “humidity. The human acute myeloid leukemia cell line MOLM-16 was obtained from DSMZ, Braunschweig, Germany (cell line number ACC-555. MOLM-16 cells were grown in RPMI with 20% FBS (Sigma, Saint Louis, CA, USA). Cells were incubated at 37° C., 5% CO2, 80% relative humidity.” for “humidity.”
as §7, §8

[5] = test system: MV4-11 cells (FLT3 ITD); experiment: as above; assay type: cell-based, human; conditions: single agent cytotoxic assay, same time points as combination; for IC50: read-out: IC50 dose level
Method: as §6
as §3, with “lines KG-1,” for “lines”, “(ACC14, ACC102” for “(ACC102”, “ACC554). KG-1 and” for “ACC554).”, “humidity. The human acute myeloid leukemia cell line MOLM-16 was obtained from DSMZ, Braunschweig, Germany (cell line number ACC-555. MOLM-16 cells were grown in RPMI with 20% FBS (Sigma, Saint Louis, CA, USA). Cells were incubated at 37° C., 5% CO2, 80% relative humidity.” for “humidity.”
as §7, §8

[6] = test system: broad panel of AML cell lines in xenograft models; conditions: in vivo; cited from earlier work
[7] = test system: AML; conditions: single agent in AML treatment; cited from earlier work
[8] = Homo sapiens, KG-1, single agent cytotoxic assay

In the case of `CN(CCO)CC[C@H](CSc1ccccc1)Nc1ccc(S(=O)(=O)NC(=O)c2ccc(N3CCC([C@@H](O)c4ccccc4-c4ccc(Cl)cc4)CC3)cc2)cc1S(=O)(=O)C(F)(F)F` [AZD4320], the IC10 [1] is reported as 0.0034 µM, the IC25 [1] is reported as 0.0110 µM and the IC50 [1] is reported as 0.037 µM. The IC75 [1] was 0.1200 µM, the IC10 [2] was 0.00065 µM and the IC25 [2] was 0.0013 µM. It also gave an IC50 [2] of 0.0027 µM and an IC75 [2] of 0.0055 µM.
`CC(C)n1c(C2CCNCC2)nc2c([N+](=O)[O-])c(Br)c(Br)cc21` [Men, 5,6-dibromo-4-nitro-2-(piperidin-4-yl)-1-(pro-pan-2-yl)-1H-1,3-benzodiazole] gave an IC10 dose level ([3]; single agent cytotoxic assay) of 0.151 µM, an IC25 dose level ([3]; single agent cytotoxic assay) of 0.293 µM and an IC75 dose level ([3]; single agent cytotoxic assay) of 1.103 µM. It also gave an IC50 ([3]; single agent cytotoxic assay) of 0.569 µM, an IC10 dose level [4] of 0.04 µM and an IC25 dose level [4] of 0.28 µM. It also gave an IC75 dose level [4] of 10.88 µM, an IC50 [4] of 1.73 µM and an IC10 dose level [5] of 0.006 µM. For the same molecule, the IC25 dose level [5] was 0.048 µM, the IC75 dose level [5] was 2.77 µM and the IC50 [5] was 0.366 µM. It also gave an IC10 [1] of 0.08729 µM, an IC25 [1] of 0.2111 µM and an IC50 [1] of 0.51 µM. It also gave an IC75 [1] of 1.234 µM, an IC10 [2] of 0.01315 µM and an IC25 [2] of 0.0350 µM. For the same molecule, the IC50 [2] was 0.093 µM, the IC75 [2] was 0.2486 µM and the “growth of AML cell lines in xenograft models” value [6] was “inhibit the growth of a broad panel of AML cell lines in xenograft models”.
In the case of `CC1(C)CCC(CN2CCN(c3ccc(C(=O)NS(=O)(=O)c4ccc(NCC5CCOCC5)c([N+](=O)[O-])c4)c(Oc4cnc5[nH]ccc5c4)c3)CC2)=C(c2ccc(Cl)cc2)C1` [Ven, Venetoclax], the IC50 [3, 8] is reported as 1.65 µM, the IC10 dose level ([3]; single agent cytotoxic assay) is reported as 0.18 µM and the IC25 dose level ([3]; single agent cytotoxic assay) is reported as 0.55 µM. The IC75 dose level ([3]; single agent cytotoxic assay) was 4.95 µM, the IC50 ([4]; Homo sapiens, MOLM-13) was 0.45 µM and the IC10 dose level [4] was 0.012 µM. For the same molecule, the IC25 dose level [4] was 0.075 µM, the IC75 dose level [4] was 2.77 µM and the IC50 ([5]; Homo sapiens) was 0.003 µM. The IC10 dose level [5] was 0.000276 µM, the IC25 dose level [5] was 0.000829 µM and the IC75 dose level [5] was 0.007 µM. For the same molecule, the safety [7] was “safe”.
With `Cc1c(N(C(=O)c2cc(-c3cc(Cl)ccc3C(=O)N3Cc4ccccc4C[C@H]3CN3CCOCC3)n(C)c2C)c2ccc(O)cc2)cc(C#N)n1C` [S65487] the IC50 ([1]; Homo sapiens) was 0.225 µM, the IC10 [1] was 0.0145 µM and the IC25 [1] was 0.0570 µM. It also gave an IC75 [1] of 0.8800 µM, an IC50 ([2]; Homo sapiens) of 0.018 µM and an IC10 [2] of 0.0025 µM. The IC25 [2] was 0.0066 µM and the IC75 [2] was 0.0480 µM.
With `Nc1ncn([C@@H]2O[C@H](CO)[C@@H](O)[C@H]2O)c(=O)n1` [Aza, 5-Azacitidine] the IC50 [3, 8] was 0.76 µM, the IC10 dose level ([3]; single agent cytotoxic assay) was 0.097 µM and the IC25 dose level ([3]; single agent cytotoxic assay) was 0.27 µM. For the same molecule, the IC75 dose level ([3]; single agent cytotoxic assay) was 2.15 µM, the IC50 ([4]; Homo sapiens, MOLM-13) was 0.96 µM and the IC10 dose level [4] was 0.083 µM. For the same molecule, the IC25 dose level [4] was 0.28 µM, the IC75 dose level [4] was 3.28 µM and the IC50 ([5]; Homo sapiens) was 0.65 µM. The IC10 dose level [5] was 0.14 µM, the IC25 dose level [5] was 0.3 µM and the IC75 dose level [5] was 1.41 µM.
